Experimental data from ChEMBL document CHEMBL1201862, “PubChem BioAssay data set” (2004).
Active and inactive are the calls of the source.

Legend:
[1] = biological target: Cytochrome P450 3A4 (Homo sapiens, UniProt P08684); conditions: Potency;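 note: confirmatory qHTS run detecting inhibitors and substrates of CYP3A4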
[2] = biological target: Cytochrome P450 2C9 (Homo sapiens, UniProt P11712); conditions: Potency
[3] = biological target: Cyclin-dependent kinase 5/CDK5 activator 1 (Homo sapiens, UniProt Q00535); experiment: blockade of human CDK5 activity – biochemical, cherry-picked samples, set 2, dose response (AID 504545)
[4] = test system: BJ; experiment: BJ-TERT-LT-ST fibroblast viability loss – cell-based, RAS-independent, luminescence, dose response (AID 1935); type: functional; conditions: Homo sapiens;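 note: BJ fibroblasts immortalized with TERT plus LT and ST oncogenes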
[5] = biological target: Envelope glycoprotein gp160 (Human immunodeficiency virus 1, UniProt Q6QLK5); experiment: cell-free HIV fusion peptide-binding blockers – biochemical, uHTS, fluorescence dequenching, […] (AID 1986)
[6] = DRD fibroblast viability loss – cell-based, non-viral oncogenic, luminescence, dose response (AID 1934); type: functional; conditions: Homo sapiens
[7] = test system: BJ; experiment: cells; type: functional, cell-based; conditions: Homo sapiens
[8] = test system: BJ; experiment: BJ-TERT fibroblast viability loss – cell-based, RAS-independent, luminescence, dose response (AID 1933); type: functional; conditions: Homo sapiens
[9] = alpha-synuclein stem-loop luciferase translation blockers – H4 neuroglioma cells, luminescence, confirmation (AID 1988); type: functional, cell-based
[10] = biological target: T1, Alkaline phosphatase, tissue-nonspecific isozyme (Homo sapiens, UniProt P05186)
T1 sequence (P05186 whole entry): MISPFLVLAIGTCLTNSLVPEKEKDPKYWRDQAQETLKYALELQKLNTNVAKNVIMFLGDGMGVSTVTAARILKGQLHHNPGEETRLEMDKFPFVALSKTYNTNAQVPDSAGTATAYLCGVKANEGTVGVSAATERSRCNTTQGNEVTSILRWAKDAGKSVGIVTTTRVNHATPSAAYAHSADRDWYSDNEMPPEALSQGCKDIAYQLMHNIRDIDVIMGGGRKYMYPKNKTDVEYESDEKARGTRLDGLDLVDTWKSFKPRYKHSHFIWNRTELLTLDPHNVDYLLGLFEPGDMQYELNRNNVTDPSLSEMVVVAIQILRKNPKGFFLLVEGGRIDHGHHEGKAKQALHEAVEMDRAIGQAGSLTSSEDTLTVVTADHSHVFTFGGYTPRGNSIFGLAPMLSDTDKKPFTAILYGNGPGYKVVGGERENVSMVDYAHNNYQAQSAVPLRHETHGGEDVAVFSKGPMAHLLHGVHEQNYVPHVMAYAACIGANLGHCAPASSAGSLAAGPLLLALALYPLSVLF

[11] = biological target: Prothrombin (Homo sapiens, UniProt P00734); experiment: Thrombin 1536 HTS Dose Response Confirmation. [Related pubchem assays: 1046 (Thrombin 1536 HTS; hits were confirmed in this assay)]; type: functional
[12] = luciferase reporter signal suppression in cells – H4 neuroglioma cells, luminescence, dose response (AID 1990); type: functional, cell-based
[13] = Luminescence Cell-Based Dose Response HTS to Identify Inhibitors of 5'UTR Stem-Loop Driven Prion Protein mRNA Translation in H4 Neuroglioblastoma Cells. [Related pubchem assays: 1827 (Project Summary), 1813 (Primary HTS)]; type: functional
[14] = viability of PTEN-deleted HCT116 cells – cell-based, HCT116 PTEN knockout, dose response (AID 1047); type: functional;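 note: HCT116 colon tumor cells with PTEN knocked out; cells exposed to compound for 60 hours before readout; potency for loss of cell viability measured by luminescence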
[15] = HEK-293T viability loss after treatment – luminescence, T-cell screen hits, cytotoxicity control for TCR NF-kB inhibitor project, dose response (AID 489026); type: functional, cell-based;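 note: cells exposed to compound about 14 hours before the viability readout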
[16] = biological target: Sphingosine 1-phosphate receptor 2 (Homo sapiens, UniProt O95136); experiment: Dose Response Cell Based Assay for Antagonists of the S1P2 Receptor. [Related pubchem assays: 856, 736 ]; type: functional
[17] = viability of HCT116 lacking mutant beta-catenin – cell-based, human colon tumor, dose response (AID 1045); type: functional;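 note: HCT116 colon tumor cells with beta catenin knocked out; cells exposed to compound for 60 hours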
[18] = biological target: T2, Calpain-2 catalytic subunit (Sus scrofa, UniProt P43367); experiment: m-calpain protease blockers, concentration series – biochemical, fluorogenic peptide substrate, dose response (AID 1420); type: functional
T2 sequence (P43367 whole entry): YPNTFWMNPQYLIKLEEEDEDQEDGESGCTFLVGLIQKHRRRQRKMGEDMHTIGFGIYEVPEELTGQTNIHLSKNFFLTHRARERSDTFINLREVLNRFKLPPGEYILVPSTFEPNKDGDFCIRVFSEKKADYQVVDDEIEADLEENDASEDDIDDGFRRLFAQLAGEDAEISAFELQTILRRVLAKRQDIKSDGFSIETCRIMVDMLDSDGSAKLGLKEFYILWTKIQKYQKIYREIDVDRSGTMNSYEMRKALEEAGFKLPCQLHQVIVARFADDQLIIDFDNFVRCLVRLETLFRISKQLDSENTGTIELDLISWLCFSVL

[19] = biological target: NACHT, LRR and PYD domains-containing protein 3 (Homo sapiens, UniProt Q96P20); experiment: NALP3 inhibitors in yeast, dose response, luminescent (AID 488799); type: functional
[20] = biological target: Trypsin (Sus scrofa, UniProt P00761); experiment: trypsin protease activity blockade – biochemical, quenched peptide fluorescence, cherry-pick, selectivity assay for Rce1 protease inhibitor project, dose response (AID 488789)
[21] = test system: H4; experiment: Luminescence Cell-Based Dose Response HTS to Identify Activators of 5'UTR Stem-Loop Driven Prion Protein mRNA Translation in H4 Neuroglioblastoma Cells. [Related pubchem assays: 1829 (Project Summary), 1814 (Primary HTS)]; type: functional; conditions: Homo sapiens
[22] = Luminescence Cell-Based Dose Confirmation HTS to Identify Activators of 5'UTR Stem-Loop Driven Alpha-Synuclein mRNA Translation in H4 Neuroglioblastoma Cells. [Related pubchem assays: 1829 (Project Summary), 1814 (Primary HTS)]; type: functional
[23] = Luminescence Cell-Based Dose Retest to Confirm Activators of 5'UTR Stem-Loop Driven Alpha-Synuclein mRNA Translation in H4 Neuroglioblastoma Cells. [Related pubchem assays (depositor defined):AID1813, AID1829]; type: functional
[24] = Luminescence Cell-Based Dose Response HTS to Identify Activators of 5'UTR Stem-Loop Driven Prion Protein mRNA Translation in H4-C Neuroglioblastoma Cells. [Related pubchem assays: 1829 (Project Summary), 1814 (Primary HTS)]; type: functional
[25] = Luminescence Cell-Based Dose Response HTS to Identify Activators of Luciferase Translation or Activity in H4 […] Cells. [Related pubchem assays: 1829 (Project Summary), 1814 (Primary HTS)]; type: functional
[26] = Luminescence Cell-Based Dose Response HTS to Identify Activators of Luciferase Translation or Activity in H4-C Neuroglioblastoma Cells. [Related pubchem assays: 1829 (Project Summary), 1814 (Primary HTS)]; type: functional
[27] = biological target: Lysosomal acid glucosylceramidase (Homo sapiens, UniProt P04062); experiment: Dose response cell-based high throughput screening assay to identify enhancers of beta-glucosidase activity. [Related pubchem assays: 784 ]; type: functional
Sequence of Lysosomal acid glucosylceramidase (P04062 whole entry): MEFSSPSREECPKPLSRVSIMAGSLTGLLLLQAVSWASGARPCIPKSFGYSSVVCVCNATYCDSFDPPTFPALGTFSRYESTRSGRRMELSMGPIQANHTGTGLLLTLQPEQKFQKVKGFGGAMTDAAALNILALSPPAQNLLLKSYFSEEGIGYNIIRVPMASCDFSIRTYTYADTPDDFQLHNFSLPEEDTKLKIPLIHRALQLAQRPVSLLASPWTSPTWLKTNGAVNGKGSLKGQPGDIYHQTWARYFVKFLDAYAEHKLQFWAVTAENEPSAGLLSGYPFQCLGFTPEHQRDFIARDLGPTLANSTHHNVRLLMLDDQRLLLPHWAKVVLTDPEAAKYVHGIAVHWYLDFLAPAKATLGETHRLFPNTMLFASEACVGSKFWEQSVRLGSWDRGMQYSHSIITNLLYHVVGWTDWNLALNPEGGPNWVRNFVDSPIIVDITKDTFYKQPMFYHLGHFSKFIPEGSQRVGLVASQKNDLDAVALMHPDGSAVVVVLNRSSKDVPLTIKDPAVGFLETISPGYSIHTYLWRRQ

Sequence of Cytochrome P450 3A4 (P08684 whole entry): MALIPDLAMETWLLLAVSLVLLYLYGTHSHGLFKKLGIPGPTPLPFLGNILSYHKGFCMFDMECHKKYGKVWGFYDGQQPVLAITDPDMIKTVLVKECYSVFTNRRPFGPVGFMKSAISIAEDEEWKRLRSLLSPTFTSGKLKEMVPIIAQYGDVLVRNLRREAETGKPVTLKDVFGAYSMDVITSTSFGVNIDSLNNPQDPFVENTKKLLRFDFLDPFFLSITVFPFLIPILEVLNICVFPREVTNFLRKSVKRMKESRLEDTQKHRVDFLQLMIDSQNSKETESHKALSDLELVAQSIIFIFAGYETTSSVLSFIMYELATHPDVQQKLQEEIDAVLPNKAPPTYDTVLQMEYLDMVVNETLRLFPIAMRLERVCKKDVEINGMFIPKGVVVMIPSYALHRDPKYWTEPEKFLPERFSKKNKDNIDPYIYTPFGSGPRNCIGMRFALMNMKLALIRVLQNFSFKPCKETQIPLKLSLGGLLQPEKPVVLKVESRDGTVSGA
Sequence of Cytochrome P450 2C9 (P11712 whole entry): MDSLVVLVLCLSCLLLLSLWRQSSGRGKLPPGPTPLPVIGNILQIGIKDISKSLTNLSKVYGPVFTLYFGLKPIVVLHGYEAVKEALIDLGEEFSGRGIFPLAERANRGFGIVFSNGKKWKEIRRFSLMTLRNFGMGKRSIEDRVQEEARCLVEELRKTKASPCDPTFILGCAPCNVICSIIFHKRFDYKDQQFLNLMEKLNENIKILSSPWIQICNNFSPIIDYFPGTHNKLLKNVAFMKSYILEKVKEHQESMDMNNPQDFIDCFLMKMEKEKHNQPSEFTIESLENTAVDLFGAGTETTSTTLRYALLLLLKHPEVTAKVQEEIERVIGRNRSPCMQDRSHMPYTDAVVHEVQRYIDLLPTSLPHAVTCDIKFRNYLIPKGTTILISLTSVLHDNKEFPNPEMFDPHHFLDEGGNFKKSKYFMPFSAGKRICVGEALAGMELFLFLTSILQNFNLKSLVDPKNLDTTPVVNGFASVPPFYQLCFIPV
Sequence of Cyclin-dependent kinase 5/CDK5 activator 1 (Q00535 whole entry): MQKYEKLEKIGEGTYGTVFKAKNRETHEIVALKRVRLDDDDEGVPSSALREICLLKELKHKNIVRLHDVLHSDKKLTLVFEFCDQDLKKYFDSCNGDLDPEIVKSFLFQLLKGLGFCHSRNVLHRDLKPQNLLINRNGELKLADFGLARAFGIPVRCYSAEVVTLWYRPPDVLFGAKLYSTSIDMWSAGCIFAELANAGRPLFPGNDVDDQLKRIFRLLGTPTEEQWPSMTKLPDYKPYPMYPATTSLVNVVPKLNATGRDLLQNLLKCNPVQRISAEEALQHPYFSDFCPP
Sequence of Cyclin-dependent kinase 5/CDK5 activator 1 (Q15078 whole entry, further chain): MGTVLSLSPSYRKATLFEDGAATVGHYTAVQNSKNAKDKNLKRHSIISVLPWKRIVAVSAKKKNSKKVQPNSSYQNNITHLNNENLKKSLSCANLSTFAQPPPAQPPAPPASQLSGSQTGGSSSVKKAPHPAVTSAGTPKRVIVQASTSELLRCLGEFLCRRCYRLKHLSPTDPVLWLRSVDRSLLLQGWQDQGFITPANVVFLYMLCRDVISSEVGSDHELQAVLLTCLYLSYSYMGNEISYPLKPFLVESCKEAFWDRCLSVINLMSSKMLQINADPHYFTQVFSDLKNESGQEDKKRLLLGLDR
Sequence of Sphingosine 1-phosphate receptor 2 (O95136 whole entry): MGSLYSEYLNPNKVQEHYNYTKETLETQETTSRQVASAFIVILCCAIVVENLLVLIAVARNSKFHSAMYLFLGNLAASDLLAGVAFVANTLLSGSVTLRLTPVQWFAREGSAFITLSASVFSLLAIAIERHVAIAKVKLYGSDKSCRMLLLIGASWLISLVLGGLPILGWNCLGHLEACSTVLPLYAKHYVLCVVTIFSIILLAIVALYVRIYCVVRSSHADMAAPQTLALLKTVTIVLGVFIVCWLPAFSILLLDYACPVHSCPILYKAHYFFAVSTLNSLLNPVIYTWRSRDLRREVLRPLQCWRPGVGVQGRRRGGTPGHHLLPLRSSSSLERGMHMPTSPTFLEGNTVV
Sequence of Trypsin (P00761 whole entry): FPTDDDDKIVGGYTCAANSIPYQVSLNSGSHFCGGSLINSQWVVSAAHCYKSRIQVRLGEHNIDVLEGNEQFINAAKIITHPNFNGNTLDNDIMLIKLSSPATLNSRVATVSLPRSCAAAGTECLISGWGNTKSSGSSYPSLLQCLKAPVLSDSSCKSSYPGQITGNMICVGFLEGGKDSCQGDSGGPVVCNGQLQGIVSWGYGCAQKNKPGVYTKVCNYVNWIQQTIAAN
Sequence of NACHT, LRR and PYD domains-containing protein 3 (Q96P20 whole entry, the tested form may be a part): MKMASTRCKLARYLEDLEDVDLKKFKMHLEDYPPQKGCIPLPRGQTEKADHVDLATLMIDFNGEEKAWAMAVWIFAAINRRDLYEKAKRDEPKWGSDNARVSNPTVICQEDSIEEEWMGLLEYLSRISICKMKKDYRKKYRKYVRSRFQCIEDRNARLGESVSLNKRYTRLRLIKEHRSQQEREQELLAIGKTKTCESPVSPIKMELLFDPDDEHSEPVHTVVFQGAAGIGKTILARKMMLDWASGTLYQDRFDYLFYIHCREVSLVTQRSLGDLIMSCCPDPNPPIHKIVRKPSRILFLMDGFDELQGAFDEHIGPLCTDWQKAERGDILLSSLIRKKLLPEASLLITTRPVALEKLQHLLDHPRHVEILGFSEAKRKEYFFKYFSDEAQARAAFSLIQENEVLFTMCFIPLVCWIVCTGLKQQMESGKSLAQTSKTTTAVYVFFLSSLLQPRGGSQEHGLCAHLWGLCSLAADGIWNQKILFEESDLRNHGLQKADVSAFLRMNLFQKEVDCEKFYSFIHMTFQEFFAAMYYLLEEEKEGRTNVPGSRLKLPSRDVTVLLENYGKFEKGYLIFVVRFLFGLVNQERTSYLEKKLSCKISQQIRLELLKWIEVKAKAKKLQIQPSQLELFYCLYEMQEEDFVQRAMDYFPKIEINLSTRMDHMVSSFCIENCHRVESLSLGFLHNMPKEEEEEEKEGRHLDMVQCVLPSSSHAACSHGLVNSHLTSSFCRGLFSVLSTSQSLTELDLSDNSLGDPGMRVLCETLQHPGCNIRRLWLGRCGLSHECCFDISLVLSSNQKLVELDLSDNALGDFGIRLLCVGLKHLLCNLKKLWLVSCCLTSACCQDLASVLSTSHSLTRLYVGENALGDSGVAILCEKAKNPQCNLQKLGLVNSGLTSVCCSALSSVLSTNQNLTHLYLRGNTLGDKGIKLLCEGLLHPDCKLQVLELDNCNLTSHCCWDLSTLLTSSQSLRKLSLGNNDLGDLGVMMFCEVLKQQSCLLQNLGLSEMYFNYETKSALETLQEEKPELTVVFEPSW
Sequence of Envelope glycoprotein gp160 (Q6QLK5 whole entry, the tested form may be a part): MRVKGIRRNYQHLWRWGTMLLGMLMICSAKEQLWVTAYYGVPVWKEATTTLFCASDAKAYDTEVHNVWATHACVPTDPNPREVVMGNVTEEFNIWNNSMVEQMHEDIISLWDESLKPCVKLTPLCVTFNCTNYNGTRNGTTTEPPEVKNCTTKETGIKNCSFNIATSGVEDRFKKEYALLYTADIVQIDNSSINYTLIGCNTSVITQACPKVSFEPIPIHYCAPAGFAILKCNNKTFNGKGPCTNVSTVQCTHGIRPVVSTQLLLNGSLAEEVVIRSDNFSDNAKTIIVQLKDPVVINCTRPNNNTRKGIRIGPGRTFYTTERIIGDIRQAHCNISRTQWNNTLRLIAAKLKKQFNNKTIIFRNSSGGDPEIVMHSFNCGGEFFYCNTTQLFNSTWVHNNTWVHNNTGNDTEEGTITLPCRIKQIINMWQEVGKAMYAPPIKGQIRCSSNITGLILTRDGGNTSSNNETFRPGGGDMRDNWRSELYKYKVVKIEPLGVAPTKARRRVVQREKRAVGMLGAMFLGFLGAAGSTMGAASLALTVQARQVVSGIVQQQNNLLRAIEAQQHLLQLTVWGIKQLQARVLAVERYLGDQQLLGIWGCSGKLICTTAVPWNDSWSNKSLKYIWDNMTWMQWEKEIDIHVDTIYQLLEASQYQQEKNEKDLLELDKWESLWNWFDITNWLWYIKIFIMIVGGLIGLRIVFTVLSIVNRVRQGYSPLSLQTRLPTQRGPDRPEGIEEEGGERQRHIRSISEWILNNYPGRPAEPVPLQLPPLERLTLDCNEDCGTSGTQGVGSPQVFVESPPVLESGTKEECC

CC1(C)CCC[C@@]2(C)[C@@H]1CC[C@]1(C)OC(=O)C[C@@H]21
AC50 [1]: 20 µM (inconclusive)
AC50 [2]: 39.8 µM (inconclusive)

O=C1NCCCc2c1oc1ccc(O)cc21
AC50 [3]: 10.7 µM (active)

O=C(O)CN1C(=O)/C(=C\c2cn(-c3ccccc3)nc2-c2ccccc2)SC1=S
EC50 [4]: > 150 µM (not active)
IC50 [5]: > 99 µM (inactive)
EC50 [6]: 41.4 µM (active)
EC50 [7]: > 150 µM (not active)
EC50 [8]: 31.1 µM (active)

CCn1c(C)nc2cc(C(=O)N/N=C(\C)c3ccc(OC)cc3O)ccc21
EC50 [9]: 9.16 µM (active)
EC50 [10]: > 100 µM (not active)
IC50 [11]: > 50 µM (not active)
EC50 [12]: 12.8 µM (active)
EC50 [13]: 11.2 µM (active)

CCCCCCCCCn1c2c(c(=N)c3c1CCC3)CCC2
EC50 [4]: 8.37 µM (inconclusive)
EC50 [14]: 0.728 µM (active)
IC50 [15]: 47.8 µM (inactive)
EC50 [6]: 3.16 µM (active)
IC50 [16]: 9.03 µM (active)
EC50 [7]: 2.07 µM (active)
EC50 [8]: 1.15 µM (active)
EC50 [17]: 0.561 µM (active)
IC50 [18]: 7.18 µM (active)
IC50 [19]: 9.02 µM (active)

COc1cccc(-c2ccc(-c3noc(-c4ccccc4F)n3)c(OC)n2)c1
AC50 [20]: 14.3 µM (active)

Cc1nn(C)c(Sc2ccccn2)c1[N+](=O)[O-]
EC50 [21]: > 120 µM (not active)
EC50 [22]: 1.7 µM (active)
EC50 [23]: > 195 µM (inactive)
EC50 [24]: > 195 µM (not active)
EC50 [25]: 88.4 µM (active)
EC50 [26]: > 195 µM (not active)

CCC(Sc1nc(C)cc(O)n1)C(=O)Nc1nc2c(s1)CCCC2 (stereo unspecified)
EC50 [27]: > 50 µM (not active)
